IOP elevation data for one compound are collected here from patent US11865134B2, “Treatment of inflammation with glucocorticoids and angiopoietin-like 7 (ANGPTL7) inhibitors” (Regeneron Pharmaceuticals, Inc., priority 2021, dated 2024).

Common to all, as to type: in vivo
For one data set, the system named is ANGPTL7 KO mice. Description: DEX-Ac-induced ocular hypertension in ANGPTL7 KO mice (IOP measurement). The note with it: weekly periocular CF injections of DEX-Ac in both eyes, versus vehicle-treated, week 1 to week 6. The text has this: (§1) IOP measurements of DEX-Ac-treated (n=18) versus vehicle-treated (n=6) mice show IOP elevation from week 1 to 6; **p<0.01, ***p<0.001, ****p<0.0001.

The subject of another data set is ANGPTL7 WT mice. Kind of data set: DEX-Ac-induced ocular hypertension in ANGPTL7 WT mice (IOP measurement). The note with it: weekly periocular CF injections of DEX-Ac in both eyes, versus vehicle-treated, week 1 to 6.
From the text: as §1

The next data set concerns ANGPTL7. Kind of data set: ANGPTL7 siRNA in DEX-Ac-induced ocular hypertension (steroid-induced IOP) in wild-type mice. The note with it: WT mice; weekly periocular CF injections of DEX-Ac to both eyes; compared with vehicle-treated mice; starting 6-days post-injection. The text has this: dsRNA were further assessed for their ability to reduce steroid induced IOP in vivo in wild-type mice. […] Mice were divided into following groups as shown in FIG. 4: a) Vehicle (n=4), b) Vehicle+PBS (n=6), c) DEX-Ac (n=12), d) DEX-Ac+siRNA #3 (n=14), and e) DEX-Ac+siRNA #5 (n=14). […] At Day 22, siRNA targeting ANGPTL7 (#3 and #5) were intravitreally injected into groups: d and e (DEX-Ac+siRNA #3 and DEX-Ac+siRNA #5) and IOP measurements continued to be recorded.

As to `CC(=O)OCC(=O)[C@@]1(O)[C@H](C)C[C@H]2[C@@H]3CCC4=CC(=O)C=C[C@]4(C)[C@@]3(F)[C@@H](O)C[C@@]21C` [DEX-Ac, dexamethasone-21-acetate], the IOP elevation entry in the data set on ANGPTL7 KO mice was “did not elevate IOP”; in the data set with ANGPTL7 WT mice it was “significantly elevated IOP”; in the data set with ANGPTL7, “rapid and significantly higher”.
